Some test systems named below: HT29 colon; A498 renal; RPMI-8226 leukemia; NCI-H460 lung; HOP-62 NSCLC; U251 CNS; MOLT-4 leukemia; MCF7 breast; SF-539 CNS; SN12C renal.
Assay in all cases: NCI anticancer screen, dose series, 48 h

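All cell lines were grown in 96-well plates and treated with compound for 48 hours. GI50 is the concentration that inhibits growth by half. At the TGI there is no net growth.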

Consider `COC(=O)c1ccc2c(c1)nc(-c1ccc(Cl)cc1)n2-c1cc(C(C)(C)C)[nH]n1`, for which the GI50 in the assay with HT29 colon is 3.65 µM; with A498 renal, 2.26 µM; in the assay with RPMI-8226 leukemia, 3.93 µM; in the assay with NCI-H460 lung, 2.95 µM; in the assay with HOP-62 NSCLC, 3.41 µM; with U251 CNS, 4.13 µM. The GI50 in the assay with MOLT-4 leukemia was 5.48 µM; with MCF7 breast, 2.79 µM; in the assay on SF-539 CNS it was 2.54 µM; with SN12C renal it was 4.34 µM. In addition, the TGI is 15.4 µM in the assay with HT29 colon; 9.76 µM in the assay with A498 renal; 11.2 µM with RPMI-8226 leukemia; 8.81 µM in the assay with NCI-H460 lung; 21 µM with HOP-62 NSCLC; 22.7 µM with U251 CNS. The TGI in the assay on MOLT-4 leukemia was over 100 µM; in the assay on MCF7 breast it was 12.3 µM; in the assay on SF-539 CNS, 8.95 µM; in the assay with SN12C renal, 27.7 µM.
Consider `COc1cc2c(/C=C3\C(=O)Nc4ccc(Br)cc43)c(Cl)n(C)c2cc1C`, for which the GI50 in the assay with HT29 colon was 1.98 µM; in the assay on A498 renal, 0.419 µM; in the assay on RPMI-8226 leukemia it was 1.41 µM; with NCI-H460 lung, 0.916 µM; with HOP-62 NSCLC it was 0.813 µM; in the assay on U251 CNS, 0.675 µM. Moreover, the GI50 with MOLT-4 leukemia is 5.63 µM; with MCF7 breast it was 0.322 µM; with SF-539 CNS, 1 µM; with SN12C renal, 3.05 µM. The TGI in the assay on HT29 colon was 6.83 µM; in the assay on A498 renal it was 1.62 µM; in the assay on RPMI-8226 leukemia it was 16.6 µM; in the assay on NCI-H460 lung it was 4.69 µM; in the assay on HOP-62 NSCLC it was 4.47 µM; with U251 CNS, 6.69 µM. Besides, the TGI is over 27.5 µM with MOLT-4 leukemia, 6.53 µM in the assay on MCF7 breast, 4.71 µM in the assay on SF-539 CNS and 11.4 µM in the assay on SN12C renal.
With `O=[N+]([O-])c1ccc2[nH]cc(-c3c4ccccc4cc4[nH]c5ccc([N+](=O)[O-])cc5c34)c2c1`, the GI50 in the assay with HT29 colon is 3.62 µM; in the assay with A498 renal, 1.53 µM; with RPMI-8226 leukemia it was 2.27 µM; in the assay with NCI-H460 lung it was 2.72 µM; with HOP-62 NSCLC, 2.54 µM; with U251 CNS, 2.81 µM. For the same compound, the GI50 in the assay with MOLT-4 leukemia was 2.45 µM; with MCF7 breast, 1.65 µM; in the assay on SF-539 CNS it was 2 µM; with SN12C renal it was 2.84 µM. The TGI with HT29 colon worked out at 11.3 µM; in the assay with A498 renal, 4.25 µM; with RPMI-8226 leukemia, 6.32 µM; in the assay with NCI-H460 lung, 7.7 µM; with HOP-62 NSCLC, 7.25 µM; in the assay with U251 CNS it was 8.41 µM. Besides, the TGI in the assay on MOLT-4 leukemia came out at 6.55 µM; in the assay on MCF7 breast it was 3.73 µM; in the assay on SF-539 CNS, 4.98 µM; in the assay on SN12C renal, 7.92 µM.
For `CN(C)CCn1cc(-c2ccc3c(Nc4ccc(CC(=O)Nc5cccc(F)c5)cc4)ncnc3c2)cn1`, the GI50 with HT29 colon was 1.29 µM; in the assay with A498 renal, over 10 µM; with RPMI-8226 leukemia, 2.32 µM; in the assay with NCI-H460 lung, 0.087 µM; with HOP-62 NSCLC it was over 10 µM; with U251 CNS, 1.56 µM. For the same compound, the GI50 in the assay on MOLT-4 leukemia is 2.51 µM; in the assay with MCF7 breast, 1.21 µM; in the assay on SF-539 CNS, 0.0918 µM; with SN12C renal, 1.53 µM. Further, the TGI was 3.16 µM in the assay with HT29 colon; over 10 µM in the assay on A498 renal; 5.93 µM in the assay on RPMI-8226 leukemia; 2.49 µM in the assay on NCI-H460 lung; over 10 µM in the assay on HOP-62 NSCLC; 3.45 µM in the assay on U251 CNS. Moreover, the TGI was over 10 µM in the assay with MOLT-4 leukemia, 3.55 µM in the assay with MCF7 breast, 1.97 µM in the assay on SF-539 CNS and 3.64 µM in the assay with SN12C renal.
Regarding `O=c1c2ccccc2nc(-c2ccc(Cl)cc2)n1O`, the TGI with HT29 colon was over 100 µM; in the assay with A498 renal, over 100 µM; in the assay with RPMI-8226 leukemia, over 100 µM; in the assay with NCI-H460 lung, over 100 µM; with HOP-62 NSCLC, 91.2 µM; with U251 CNS, over 100 µM. In addition, the TGI with MOLT-4 leukemia is over 100 µM; with MCF7 breast it was 63.4 µM; in the assay with SF-539 CNS it was 64.7 µM; in the assay with SN12C renal, over 100 µM.
Consider `Cc1ccc(Cl)cc1Nc1nc(C(F)(F)F)ccc1C(=O)Oc1ccc(Cl)cc1`, for which the GI50 with HT29 colon was 13.3 µM; with A498 renal it was 11.9 µM; in the assay with RPMI-8226 leukemia, 28.6 µM; in the assay on NCI-H460 lung, 16.4 µM; with HOP-62 NSCLC, 8.88 µM; with U251 CNS it was 4.15 µM. Further, the GI50 with MOLT-4 leukemia was 7.99 µM; with MCF7 breast it was 16.8 µM; with SF-539 CNS it was 12 µM; with SN12C renal, 14.5 µM. Besides, the TGI in the assay with HT29 colon is over 100 µM; with A498 renal, 33.2 µM; with RPMI-8226 leukemia, over 100 µM; in the assay on NCI-H460 lung, 54.2 µM; with HOP-62 NSCLC, 23.1 µM; with U251 CNS, 16.1 µM. Also, the TGI in the assay on MOLT-4 leukemia is 24.3 µM; in the assay on MCF7 breast it was over 100 µM; with SF-539 CNS, 27.1 µM; with SN12C renal it was 43.8 µM.
Regarding `NC(=O)NC(=O)CI`, the GI50 in the assay with HT29 colon was 8.97 µM; in the assay with A498 renal, 15 µM; with RPMI-8226 leukemia, 5.38 µM; with NCI-H460 lung it was 18.5 µM; with HOP-62 NSCLC, 20.5 µM; in the assay with U251 CNS it was 15.3 µM. For the same compound, the GI50 in the assay on MOLT-4 leukemia was 1.74 µM; in the assay on MCF7 breast, 3.33 µM; in the assay on SF-539 CNS, 9.5 µM; in the assay on SN12C renal, 6.63 µM. Besides, the TGI with HT29 colon was 25.1 µM; in the assay with A498 renal it was 31.7 µM; with RPMI-8226 leukemia, 13.1 µM; in the assay on NCI-H460 lung, 37.3 µM; with HOP-62 NSCLC, 43.1 µM; in the assay with U251 CNS, 29.3 µM. Besides, the TGI in the assay on MOLT-4 leukemia is 4.13 µM; in the assay on MCF7 breast it was 16.6 µM; in the assay on SF-539 CNS, 23 µM; in the assay on SN12C renal, 19.2 µM.

The values are drawn from PubChem BioAssay (NCI).
